Counter-ions that a name gives are not always drawn. Square brackets hold non-standard residues; d marks the D form. Peptide text beside a SMILES is read from it. * marks the point of attachment. Benzoyl(4-guanidino) = N=C(N)Nc1ccc(C(=O)*)cc1; Oic = O=C(O)[C@@H]1C[C@@H]2CCCC[C@@H]2N1; Hyp = O=C(O)[C@@H]1C[C@@H](O)CN1; dTic = O=C(O)[C@H]1Cc2ccccc2CN1; 2Thi = N[C@@H](Cc1cccs1)C(=O)O
Biological target: T1, B2 receptor (Oryctolagus cuniculus, UniProt Q28642)
T1 construct: rabbit jugular vein: B2 receptor; from tissue; host or cells: rabbit jugular vein
T1 sequence (Q28642 1-367): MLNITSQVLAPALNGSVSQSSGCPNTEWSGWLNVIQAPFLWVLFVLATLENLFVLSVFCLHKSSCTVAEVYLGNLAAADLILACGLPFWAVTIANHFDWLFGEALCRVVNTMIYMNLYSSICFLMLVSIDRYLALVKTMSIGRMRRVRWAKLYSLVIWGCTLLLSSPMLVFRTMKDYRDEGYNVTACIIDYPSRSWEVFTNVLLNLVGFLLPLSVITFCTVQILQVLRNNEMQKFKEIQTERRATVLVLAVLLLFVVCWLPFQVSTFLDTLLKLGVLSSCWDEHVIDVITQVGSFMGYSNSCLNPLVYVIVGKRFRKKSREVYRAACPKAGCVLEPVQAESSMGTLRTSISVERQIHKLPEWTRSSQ
Assay: Inhibition of bradykinin-induced contraction of rabbit jugular vein (B2 receptor)
Format: cell-based
Conditions: read-out: pA2 (negative logarithm of the molar concentration which necessitates a doubling of the bradykinin concentration to obtain the same effect) (converted)
From the text: Pharmacological study of the compound of the invention: rabbit jugular vein: B2 receptor

N=C(N)NCCC[C@H](NC(=O)[C@@H]1C[C@@H]2CCCC[C@@H]2N1C(=O)[C@H]1Cc2ccccc2CN1C(=O)[C@H](CO)NC(=O)[C@H](Cc1cccs1)NC(=O)CNC(=O)[C@@H]1C[C@@H](O)CN1C(=O)[C@@H]1CCCN1C(=O)[C@H](CCCNC(=N)N)NC(=O)c1ccc(NC(=N)N)cc1)C(=O)O [Example 1, G-Arg-Pro-Hyp-Gly-Thia-Ser-(D)Tic-Oic-Arg-OH trifluoroacetate] ({Benzoyl(4-guanidino)}-RP[Hyp]G[2Thi]S[dTic][Oic]R-OH)
Kb: 0.186 nM
